Earlier results in patent US20240050339A1, “FORMULATION COMPRISING P-MENTHANE-3,8-DIOL” (priority 2020, published 2024).

How the values were obtained:
Urbani SARS virus = conditions: PMD alone, from U.S. Pat. No. 7,872,051
[1] = tested on: SARS-CoV-2 England-2 isolate; conditions: one minute, mixed with the virus in the liquid phase

| SMILES | maximum log reduction (Urbani SARS virus) [log] | anti-viral activity in liquid suspension [1] |
| --- | --- | --- |
| CC1CCC(C(C)(C)O)C(O)C1 (stereo not drawn) [PMD, 2-(2-Hydroxypropan-2-yl)-5-methylcyclohexan-1-ol] | 2.5 |  |
| CCO [ethanol] |  | have anti-viral activity |
| CC(C)O [isopropanol, propan-2-ol] |  | have anti-viral activity |
